In US12350294B2, “Medium comprising serum replacement, IGF1, STAT3 activator and adrenal gland hormone without BFGF or rock inhibitor for producing corneal endothelial substitute cells from iPS cells and a method thereof” (KEIO UNIVERSITY, priority 2018, dated 2025):

What was measured:
Type in all cases: cell-based, human
[1] = system: iPS cells (FF-I01s04 line); assay: Differentiation induction inhibitory activity of ROCK inhibitor (immunostaining); details: medium containing fasudil 50 μM
Experimental: In the same manner as in Example 2 except that a medium containing fasudil (50 μM), which is a ROCK inhibitor, was used, the expression of ATP1A1 and ZO-1 was examined.

iPS cells (FF-I01s04) = assay: Effect of TGF-beta 1 added to the induction medium, immunostaining after passage; details: TGF-beta 1 1 ng/mL added to induction medium
Experimental: Using a medium (hereinafter referred to as CECSi cell induction (+T) medium) obtained by adding TGF-beta 1 (R&D System Inc., #240-GMP (1 ng/mL)) to the differentiation induction medium prepared in Example 1, the effect thereof was investigated.
Induction of iPS cells (FF-I01s04) was started using CECSi cell induction medium or CECSi cell induction (+T) medium, and the first passage was performed on day 11 and the second passage was performed on […] from the start of induction. At the time of passage, the cells were collected using Accutase (Nacalai Tesque #12679-54), and suspended and seeded at a density of 1.5×10^5 cells/cm^2 in a 35 mm dish or 100 mm dish coated with iMatrix 511 at a concentration of 3 μg/ml, without changing the previous medium.
At day 15 (after the first passage) and day 17 (after the second passage) from the start of induction, the expression state of N-cadherin and PITX2 was examined by immunostaining in the same manner as in Example 2.

[2] = system: iPS cells (FF-I01s04 line); assay: Differentiation induction inhibitory activity of bFGF (quantitative PCR and immunostaining)
Experimental: In the same manner as in Example 1 except that a medium containing bFGF (2 ng/mL) was used, the expression of each gene was quantified. As is clear from the results, when bFGF was added, an increase in ATPA1 or NR3C2 expression was not observed, and therefore an increase in ATP1A1 expression, which is important as the function of corneal endothelial cells, was not observed, either.
The expression of ATP1A1 and ZO-1 in the cells cultured in a medium containing bFGF was examined in the same manner as in Example 2.

[3] = immunostaining, medium containing bFGF
[4] = quantitative PCR, medium containing bFGF 2 ng/mL, day 12

O=S(=O)(c1cccc2cnccc12)N1CCCNCC1 [fasudil]
expression of ATP1A1 in the cellular membrane [1]: low
expression of ZO-1 and cell shape [1]: Elongated cells poorly expressing ZO-1 appeared

TGF-beta 1: isoform of transforming growth factor beta, protein added to the medium
endothelial morphology after passage (iPS cells (FF-I01s04); day 15 and day 17): could be maintained
expression of N-cadherin after passage (iPS cells (FF-I01s04); day 15 and day 17, after first and second passage): maintained

bFGF: basic fibroblast growth factor
expression of ATP1A1 [2, 3]: remarkably low
expression of ZO-1 and cell shape [2, 3]: Elongated cells poorly expressing ZO-1 appeared
increase in ATP1A1 expression [2, 4]: not observed
increase in ATPA1 or NR3C2 expression [2, 4]: not observed
